Holding throughout (assay type): functional
Assay [1] has as its system Staphylococcus aureus. Kind of assay: Antibacterial activity against Staphylococcus aureus ATCC 6538P by microbroth dilution method.
In assay [2] the test system is Staphylococcus aureus. Kind of assay: Antibacterial activity against Staphylococcus aureus ATCC 33591 by microbroth dilution method. (In general: Broth dilution looks for growth in wells or tubes with falling amounts of substance.)
For assay [3], the system named is Staphylococcus aureus. Kind of assay: Antibacterial activity against Staphylococcus aureus ATCC 29213 by microbroth dilution method.
The test system of assay [4] is Staphylococcus aureus. Kind of assay: Antibacterial activity against methicillin-resistant Staphylococcus aureus 1201984 by microbroth dilution method.
The test system of assay [5] is Staphylococcus aureus. Nature of the assay: Antibacterial activity against linezolid-resistant Staphylococcus aureus by microbroth dilution method.
Another assay concerns Enterococcus faecalis. Nature of the assay: Antibacterial activity against Enterococcus faecalis ATCC 29212 by microbroth dilution method.
Another assay concerns Enterococcus faecium. Kind of assay: Antibacterial activity against Enterococcus faecium 19434 by microbroth dilution method.
For a further assay, the system named is Streptococcus pneumoniae. Nature of the assay: Antibacterial activity against Streptococcus pneumoniae 55143 by microbroth dilution method.
A further assay concerns Streptococcus pyogenes. Kind of assay: Antibacterial activity against Streptococcus pyogenes ATCC 19615 by microbroth dilution method.
Assay [6] relates to Staphylococcus epidermidis. Nature of the assay: Antibacterial activity against Staphylococcus epidermidis ATCC 14990 by microbroth dilution method.
Another assay deals with Haemophilus influenzae. Nature of the assay: Antibacterial activity against Haemophilus influenzae ATCC 49247 by microbroth dilution method.

In brackets after ≈: the same amount, converted by molar mass. A value given as a limit tells only on which side of the number the result lay.

For the compound `Cl.NC[C@H]1CN(c2ccc(-c3ccc4c(c3)NC(=O)CO4)c(F)c2)C(=O)O1`, the MIC was 4 mg/L in the assay on Staphylococcus aureus [1]; 16 mg/L against Staphylococcus aureus [2]; 8 mg/L with Staphylococcus aureus [3]; 8 mg/L against Staphylococcus aureus [4]; over 32 mg/L with Staphylococcus aureus [5]; 8 mg/L against Enterococcus faecalis. The MIC (in the assay on Enterococcus faecium; in the assay on Streptococcus pneumoniae; with Streptococcus pyogenes; in assay [6]; with Haemophilus influenzae) was 4 mg/L throughout.

As to `O=C1COc2c(cccc2-c2ccc(N3C[C@H](CO)OC3=O)cc2F)N1`, the MIC is 8 mg/L (≈ 22.3 µM) against Staphylococcus aureus [1]; 4 mg/L (≈ 11.2 µM) in the assay with Staphylococcus aureus [2]; 2 mg/L (≈ 5.58 µM) with Staphylococcus aureus [3]; 8 mg/L (≈ 22.3 µM) against Staphylococcus aureus [4]; over 32 mg/L against Staphylococcus aureus [5]; 16 mg/L (≈ 44.7 µM) against Enterococcus faecalis. Besides, the MIC against Enterococcus faecium is 32 mg/L (≈ 89.3 µM); against Streptococcus pneumoniae, 8 mg/L (≈ 22.3 µM); in the assay with Streptococcus pyogenes, 8 mg/L (≈ 22.3 µM); in assay [6], 2 mg/L (≈ 5.58 µM); in the assay on Haemophilus influenzae it was 1 mg/L (≈ 2.79 µM).

Consider `CCC(=O)NC[C@H]1CN(c2ccc(-c3ccc4c(c3)NC(=O)CO4)c(F)c2)C(=O)O1`, for which the MIC against Staphylococcus aureus [1] was found to be 0.125 mg/L (≈ 0.302 µM); against Staphylococcus aureus [2], 0.25 mg/L (≈ 0.605 µM); in the assay on Staphylococcus aureus [3] it was 0.25 mg/L (≈ 0.605 µM); in the assay with Staphylococcus aureus [4] it was 0.5 mg/L (≈ 1.21 µM); with Staphylococcus aureus [5], 1 mg/L (≈ 2.42 µM); with Enterococcus faecalis, 0.25 mg/L (≈ 0.605 µM). Also, the MIC amounted to 0.06 mg/L (≈ 0.145 µM) against Enterococcus faecium; 0.5 mg/L (≈ 1.21 µM) in the assay on Streptococcus pneumoniae; 0.25 mg/L (≈ 0.605 µM) in the assay on Streptococcus pyogenes; 0.125 mg/L (≈ 0.302 µM) in assay [6]; 0.25 mg/L (≈ 0.605 µM) in the assay on Haemophilus influenzae.

Regarding `O=C1COc2cccc(-c3ccc(N4C[C@H](CO)OC4=O)cc3F)c2N1`, the MIC against Staphylococcus aureus [1], in the assay on Staphylococcus aureus [2], with Staphylococcus aureus [3], with Staphylococcus aureus [4], in the assay on Staphylococcus aureus [5] and against Enterococcus faecalis was over 32 mg/L in each case. Also, the MIC (in the assay on Enterococcus faecium; in the assay on Streptococcus pneumoniae; in the assay on Streptococcus pyogenes; in assay [6]; in the assay on Haemophilus influenzae) was over 32 mg/L in each case.

With `Cc1nc2ccc(-c3ccc(N4C[C@H](CO)OC4=O)cc3F)cc2c(=O)[nH]1`, the MIC amounted to 0.125 mg/L (≈ 0.338 µM) against Staphylococcus aureus [1]; 0.5 mg/L (≈ 1.35 µM) in the assay with Staphylococcus aureus [2]; 0.25 mg/L (≈ 0.677 µM) against Staphylococcus aureus [3]; 0.25 mg/L (≈ 0.677 µM) against Staphylococcus aureus [4]; 2 mg/L (≈ 5.41 µM) in the assay with Staphylococcus aureus [5]; 0.5 mg/L (≈ 1.35 µM) in the assay with Enterococcus faecalis. Moreover, the MIC in the assay with Enterococcus faecium is 0.25 mg/L (≈ 0.677 µM); against Streptococcus pneumoniae, 0.25 mg/L (≈ 0.677 µM); with Streptococcus pyogenes, 0.25 mg/L (≈ 0.677 µM); in assay [6], 0.125 mg/L (≈ 0.338 µM); against Haemophilus influenzae, 0.5 mg/L (≈ 1.35 µM).

For `O=C1NCCOc2ccc(-c3ccc(N4C[C@H](CO)OC4=O)cc3F)cc21`, the MIC in the assay with Staphylococcus aureus [1] is 0.25 mg/L (≈ 0.671 µM); against Staphylococcus aureus [2], 1 mg/L (≈ 2.69 µM); with Staphylococcus aureus [3], 0.5 mg/L (≈ 1.34 µM); against Staphylococcus aureus [4] it was 0.5 mg/L (≈ 1.34 µM); against Staphylococcus aureus [5], 4 mg/L (≈ 10.7 µM); with Enterococcus faecalis, 0.5 mg/L (≈ 1.34 µM). Also, the MIC worked out at 0.5 mg/L (≈ 1.34 µM) against Enterococcus faecium; 0.5 mg/L (≈ 1.34 µM) in the assay with Streptococcus pneumoniae; 0.5 mg/L (≈ 1.34 µM) with Streptococcus pyogenes; 0.25 mg/L (≈ 0.671 µM) in assay [6]; 1 mg/L (≈ 2.69 µM) with Haemophilus influenzae.

In the case of `O=C1O[C@@H](CO)CN1c1ccc(-c2ccc3oc(=O)[nH]c3c2)c(F)c1`, the MIC in the assay on Staphylococcus aureus [1] was 0.25 mg/L (≈ 0.726 µM); with Staphylococcus aureus [2] it was 32 mg/L (≈ 92.9 µM); against Staphylococcus aureus [3], 1 mg/L (≈ 2.9 µM); in the assay on Staphylococcus aureus [4] it was 32 mg/L (≈ 92.9 µM); with Staphylococcus aureus [5], 4 mg/L (≈ 11.6 µM); in the assay with Enterococcus faecalis it was 0.5 mg/L (≈ 1.45 µM). The MIC against Enterococcus faecium is 0.25 mg/L (≈ 0.726 µM); with Streptococcus pneumoniae, 0.125 mg/L (≈ 0.363 µM); with Streptococcus pyogenes it was 0.125 mg/L (≈ 0.363 µM); in assay [6] it was under 0.06 mg/L; with Haemophilus influenzae, 4 mg/L (≈ 11.6 µM).

For `O=C1COc2ccc(-c3ccc(N4C[C@H](CNC(=O)C5CCC5)OC4=O)cc3F)cc2N1`, the MIC is 0.125 mg/L (≈ 0.284 µM) with Staphylococcus aureus [1]; 0.5 mg/L (≈ 1.14 µM) against Staphylococcus aureus [2]; 0.5 mg/L (≈ 1.14 µM) in the assay on Staphylococcus aureus [3]; 0.5 mg/L (≈ 1.14 µM) against Staphylococcus aureus [4]; 2 mg/L (≈ 4.55 µM) in the assay with Staphylococcus aureus [5]; 0.06 mg/L (≈ 0.137 µM) in the assay with Enterococcus faecalis. Further, the MIC in the assay with Enterococcus faecium stood at 0.06 mg/L (≈ 0.137 µM); in the assay with Streptococcus pneumoniae it was 1 mg/L (≈ 2.28 µM); with Streptococcus pyogenes, 1 mg/L (≈ 2.28 µM); in assay [6], 0.25 mg/L (≈ 0.569 µM); against Haemophilus influenzae, 1 mg/L (≈ 2.28 µM).

As for `O=C1O[C@@H](CO)CN1c1ccc(-c2ccc3c(c2)NC(=O)C2(CC2)O3)c(F)c1`, the MIC is under 0.06 mg/L in the assay with Staphylococcus aureus [1]; 0.5 mg/L (≈ 1.3 µM) with Staphylococcus aureus [2]; 0.25 mg/L (≈ 0.65 µM) against Staphylococcus aureus [3]; under 0.06 mg/L against Staphylococcus aureus [4]; 2 mg/L (≈ 5.2 µM) in the assay with Staphylococcus aureus [5]; 0.125 mg/L (≈ 0.325 µM) against Enterococcus faecalis. Further, the MIC against Enterococcus faecium was under 0.06 mg/L; with Streptococcus pneumoniae, 0.25 mg/L (≈ 0.65 µM); in the assay on Streptococcus pyogenes it was 0.25 mg/L (≈ 0.65 µM); in assay [6], under 0.06 mg/L; in the assay with Haemophilus influenzae it was 0.5 mg/L (≈ 1.3 µM).

Turning to `O=C1O[C@@H](CO)CN1c1ccc(-c2ccc3c(c2)OCCO3)c(F)c1`, the MIC is 1 mg/L (≈ 2.9 µM) against Staphylococcus aureus [1]; 32 mg/L (≈ 92.7 µM) in the assay on Staphylococcus aureus [2]; 4 mg/L (≈ 11.6 µM) in the assay on Staphylococcus aureus [3]; 32 mg/L (≈ 92.7 µM) with Staphylococcus aureus [4]; over 32 mg/L against Staphylococcus aureus [5]; 4 mg/L (≈ 11.6 µM) with Enterococcus faecalis. Also, the MIC against Enterococcus faecium is 2 mg/L (≈ 5.79 µM); with Streptococcus pneumoniae, 0.5 mg/L (≈ 1.45 µM); with Streptococcus pyogenes, 0.5 mg/L (≈ 1.45 µM); in assay [6], 0.06 mg/L (≈ 0.174 µM); with Haemophilus influenzae, 8 mg/L (≈ 23.2 µM).

The record behind these values is ChEMBL document CHEMBL4130562, “Design, Synthesis, and Antibacterial Evaluation of Oxazolidinones with Fused Heterocyclic C-Ring Substructure” (ACS Med Chem Lett, 2017).
